Experimental data reported in ChEMBL document CHEMBL1145107, “Peptide science: exploring the use of chemical principles and interdisciplinary collaboration for understanding life processes” (J Med Chem, 2003).
Where a SMILES comes first, the peptide text is derived from it. [ ]: non-standard residue; d: D form. NMeNle = CCCC[C@H](NC)C(=O)O; dNle = CCCC[C@@H](N)C(=O)O

Assays:
Anolis carolinensis = experiment: Biological activity using the lizard skin (Anolis carolinensis) assay. The value indicates prolonged biological activity; assay type: functional, organism-based
[1] = Biological activity using the frog skin (Rana pipiens) assay. The value indicates no prolonged biological activity; assay type: functional
[2] = biological target: T1, Cholecystokinin receptor type A (Homo sapiens, UniProt P32238); experiment: Binding affinity towards Cholecystokinin type A receptor (CCK-A) receptor was determined
T1 sequence (P32238 whole entry): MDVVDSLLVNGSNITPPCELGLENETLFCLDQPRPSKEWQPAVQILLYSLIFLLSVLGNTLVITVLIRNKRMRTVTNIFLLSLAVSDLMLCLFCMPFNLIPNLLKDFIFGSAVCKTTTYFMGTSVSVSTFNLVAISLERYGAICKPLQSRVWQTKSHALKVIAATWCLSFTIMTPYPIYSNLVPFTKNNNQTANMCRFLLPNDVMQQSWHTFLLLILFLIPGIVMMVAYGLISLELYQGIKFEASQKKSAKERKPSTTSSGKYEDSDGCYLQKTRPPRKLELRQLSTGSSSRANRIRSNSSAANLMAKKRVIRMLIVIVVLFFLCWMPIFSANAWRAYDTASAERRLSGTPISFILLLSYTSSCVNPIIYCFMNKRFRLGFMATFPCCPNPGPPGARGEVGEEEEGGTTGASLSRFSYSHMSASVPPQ

[3] = biological target: T2, Gastrin/cholecystokinin type B receptor (Homo sapiens, UniProt P32239); experiment: Binding affinity towards Cholecystokinin type B receptor (CCK-B) receptor was determined
T2 sequence (P32239 whole entry): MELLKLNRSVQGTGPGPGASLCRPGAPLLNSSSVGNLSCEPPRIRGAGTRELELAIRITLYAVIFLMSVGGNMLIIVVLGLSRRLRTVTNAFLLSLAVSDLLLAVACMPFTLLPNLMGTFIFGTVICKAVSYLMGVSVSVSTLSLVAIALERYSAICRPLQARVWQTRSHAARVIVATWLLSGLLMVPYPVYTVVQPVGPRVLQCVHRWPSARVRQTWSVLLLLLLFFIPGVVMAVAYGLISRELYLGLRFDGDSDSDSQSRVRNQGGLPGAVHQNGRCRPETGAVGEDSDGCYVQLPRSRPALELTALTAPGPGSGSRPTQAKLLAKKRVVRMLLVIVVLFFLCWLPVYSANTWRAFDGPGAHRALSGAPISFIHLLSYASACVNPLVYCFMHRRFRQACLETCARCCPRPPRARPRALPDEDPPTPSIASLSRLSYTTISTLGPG

Mu-type opioid receptor = Mu-type opioid receptor (Homo sapiens, UniProt P35372); experiment: Binding affinity towards Opioid receptor mu 1 was determined
[4] = biological target: Delta-type opioid receptor (Homo sapiens, UniProt P41143); experiment: Binding affinity towards Opioid receptor delta 1 was determined
[5] = Biological activity using the frog skin (Rana pipiens) assay. The value indicates prolonged biological activity; assay type: functional

Chain of Mu-type opioid receptor (P35372 whole entry): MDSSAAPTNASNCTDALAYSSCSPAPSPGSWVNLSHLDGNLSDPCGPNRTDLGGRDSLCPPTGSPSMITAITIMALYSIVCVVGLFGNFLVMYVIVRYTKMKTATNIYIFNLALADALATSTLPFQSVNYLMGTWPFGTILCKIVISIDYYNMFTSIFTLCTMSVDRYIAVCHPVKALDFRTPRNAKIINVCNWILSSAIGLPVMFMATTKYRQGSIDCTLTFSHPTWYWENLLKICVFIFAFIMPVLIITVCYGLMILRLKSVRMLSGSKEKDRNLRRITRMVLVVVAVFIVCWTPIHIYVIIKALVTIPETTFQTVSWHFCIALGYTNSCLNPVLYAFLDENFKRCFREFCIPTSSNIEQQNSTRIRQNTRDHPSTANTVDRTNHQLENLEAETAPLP
Chain of Delta-type opioid receptor (P41143 whole entry): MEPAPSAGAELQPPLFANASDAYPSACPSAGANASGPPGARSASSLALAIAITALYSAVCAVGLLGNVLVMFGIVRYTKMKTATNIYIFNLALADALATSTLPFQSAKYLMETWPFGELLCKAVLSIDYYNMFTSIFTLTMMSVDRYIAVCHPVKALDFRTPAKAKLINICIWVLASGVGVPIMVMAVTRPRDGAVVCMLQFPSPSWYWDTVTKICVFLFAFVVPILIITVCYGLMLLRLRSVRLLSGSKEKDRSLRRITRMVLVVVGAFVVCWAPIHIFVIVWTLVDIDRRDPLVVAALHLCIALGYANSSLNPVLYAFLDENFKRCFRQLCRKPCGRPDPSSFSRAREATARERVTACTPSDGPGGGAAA

| SMILES | EC50 (Anolis carolinensis) [nM] | EC50 [1] [nM] | Ki [2] [µM] | Ki [3] [nM] | Ki (Mu-type opioid receptor) [nM] | Ki [4] [nM] | EC50 [5] [nM] |
| --- | --- | --- | --- | --- | --- | --- | --- |
| CCCC[C@H](NC(C)=O)C(=O)N[C@H]1CC(=O)NCCCC[C@@H](C(N)=O)NC(=O)[C@H]([C@@H](C)c2c[nH]c3ccccc23)NC(=O)[C@H](CCCN=C(N)N)NC(=O)[C@@H](Cc2ccccc2)NC(=O)[C@H](Cc2c[nH]cn2)NC1=O | 1 | 0.44 | – | – | – | – | – |
| CCCC[C@@H](NC(=O)[C@@H](N)Cc1ccc(O)cc1)C(=O)NCC(=O)N[C@@H](Cc1c[nH]c2ccccc12)C(=O)N(C)[C@@H](CCCC)C(=O)N[C@@H](CC(=O)O)C(=O)N[C@@H](Cc1ccccc1)C(N)=O (H-Y[dNle]GW[NMeNle]DF-NH2) | – | – | 3.9 | 0.6 | 25 | 1.6 | – |
| CCCC[C@@H](C(=O)N[C@@H](CC(=O)O)C(=O)N[C@@H](Cc1ccccc1)C(N)=O)N(C)C(=O)[C@@H](Cc1c[nH]c2ccccc12)NC(=O)CNC(=O)[C@@H](Cc1ccccc1)NC(=O)[C@@H](N)Cc1ccc(O)cc1 (H-Y[dF]G[dW][NMeNle]DF-NH2) | – | – | – | 1.6 | 5.7 | 0.5 | – |
| CCCC[C@@H](C(=O)N[C@@H](CC(=O)O)C(=O)N[C@@H](Cc1ccccc1)C(N)=O)N(C)C(=O)[C@H](Cc1c[nH]c2ccccc12)NC(=O)[C@H](CCC(=O)O)NC(=O)[C@@H](Cc1ccccc1)NC(=O)[C@@H](N)Cc1ccc(O)cc1 | – | – | 10 | 2.1 | 136 | 6.8 | – |
| CCCC[C@H](NC(C)=O)C(=O)N[C@H]1CC(=O)NCCCC[C@@H](C(N)=O)NC(=O)[C@@H]([C@H](C)c2c[nH]c3ccccc23)NC(=O)[C@H](CCCN=C(N)N)NC(=O)[C@@H](Cc2ccccc2)NC(=O)[C@H](Cc2c[nH]cn2)NC1=O | 1 | – | – | – | – | – | 0.33 |
| CCCC[C@H](NC(C)=O)C(=O)N[C@H]1CC(=O)NCCCC[C@@H](C(=O)NCC(=O)N2CCC[C@H]2C(=O)N[C@H](C(N)=O)C(C)C)NC(=O)[C@H](Cc2c[nH]c3ccccc23)NC(=O)[C@H](CCCN=C(N)N)NC(=O)[C@@H](Cc2ccccc2)NC(=O)[C@H](Cc2c[nH]cn2)NC1=O | 0.01 | – | – | – | – | – | 0.5 |
| CCCC[C@@H](C(=O)N[C@@H](CC(=O)O)C(=O)N[C@@H](Cc1ccccc1)C(N)=O)N(C)C(=O)[C@@H](Cc1c[nH]c2ccccc12)NC(=O)CNC(=O)[C@@H](C)NC(=O)[C@@H](N)Cc1ccc(O)cc1 (H-Y[dA]G[dW][NMeNle]DF-NH2) | – | – | 0.032 | 1.3 | 20 | 1.9 | – |
| CCCC[C@@H](C(=O)N[C@@H](CC(=O)O)C(=O)N[C@@H](Cc1ccccc1)C(N)=O)N(C)C(=O)[C@H](Cc1c[nH]c2ccccc12)NC(=O)CNC(=O)CNC(=O)[C@@H](N)Cc1ccc(O)cc1 (H-YGGW[NMeNle]DF-NH2) | – | – | 0.87 | 1.3 | 610 | 2000 | – |
| CCCC[C@H](NC(C)=O)C(=O)N[C@H]1CC(=O)NCCCC[C@@H](C(N)=O)NC(=O)[C@@H]([C@@H](C)c2c[nH]c3ccccc23)NC(=O)[C@H](CCCN=C(N)N)NC(=O)[C@@H](Cc2ccccc2)NC(=O)[C@H](Cc2c[nH]cn2)NC1=O | 1.43 | – | – | – | – | – | 0.06 |
| CCCC[C@@H](C(=O)N[C@@H](CC(=O)O)C(=O)N[C@@H](Cc1ccccc1)C(N)=O)N(C)C(=O)[C@H](Cc1c[nH]c2ccccc12)NC(=O)CNC(=O)[C@@H](Cc1ccccc1)NC(=O)[C@H](Cc1ccc(O)cc1)NC(=O)[C@@H](N)CC(=O)O | – | – | 3.33 | – | 5200 | – | – |
| CCCC[C@H](NC(C)=O)C(=O)N[C@H]1CCC(=O)NCCCC[C@@H](C(=O)NCC(=O)N2CCC[C@H]2C(=O)N[C@H](C(N)=O)C(C)C)NC(=O)[C@H](Cc2c[nH]c3ccccc23)NC(=O)[C@H](CCCN=C(N)N)NC(=O)[C@@H](Cc2ccccc2)NC(=O)[C@H](Cc2c[nH]cn2)NC1=O | 0.17 | – | – | – | – | – | 0.5 |
| CCCC[C@H](NC(C)=O)C(=O)N[C@H]1CCC(=O)NCCCC[C@@H](C(N)=O)NC(=O)[C@H](Cc2c[nH]c3ccccc23)NC(=O)[C@H](CCCN=C(N)N)NC(=O)[C@@H](Cc2ccccc2)NC(=O)[C@H](Cc2c[nH]cn2)NC1=O | 0.11 | – | – | – | – | – | 1 |
